Measurements from patent US20210023089A1, “Compositions Useful for Treating Herpes Simplex Keratitis, and Methods Using Same” (priority 2013, published 2021).

Key:
HSV-1 [1] = assay: Ex vivo HSV-1 infection of explanted human corneas, qPCR of viral genome; assay type: cell-based, HSV-1 (KOS strain); conditions: 48 hpi; for viral genome replication in corneal epithelium (qPCR): 1×10^4 PFU/cornea
Protocol: (§1) Human corneas were obtained from the Lions Eye Bank of Delaware Valley. Rabbit corneas were excised from intact fresh eyeballs of young (8-12 weeks) albino rabbits (Pel-Freez Biologicals, Rogers, Ark.). Protocol (Alekseev et al., 2012, J Vis Exp 69:e3631) for ex vivo corneal culture, infection, and treatment was followed closely. Briefly, corneoscleral buttons were excised and rinsed in PBS containing 200 U/mL penicillin and 200 μg/mL streptomycin. The endothelial concavity was filled with culture medium containing 1% low melting temperature agarose. The corneas were cultured epithelial side up in MEM medium supplemented with nonessential amino acids (1×), 2 mM […], 200 U/mL penicillin, and 200 μg/mL streptomycin. The next day, they were infected with 1×10^4 plaque forming units (PFU)/cornea of strain KOS HSV-1 for 1 hour, rinsed, and overlaid with fresh medium. Drug treatments were administered at the same concentrations as for cultured cells. For KU-55933 bioavailability assessment, corneas were treated with bleomycin (200 μg/mL) for 1 hour. The epithelial cell layer was collected by scraping to isolate DNA or protein. For immunohistochemistry studies, corneas were flash frozen in optimal cutting temperature (OCT) compound, sectioned, and immunostained using standard protocols. Treatment toxicity was assessed by briefly staining the cornea with fluorescein (1% wt/vol in PBS) and imaging the epithelial defects with 464-nm wavelength blue light (LDP LLC, Carlstadt, N.J.).
(§2) Viral genome replication and transcription were measured by quantitative PCR (qPCR). Total DNA and RNA from infected cells were isolated using the DNeasy Blood & Tissue Kit and the RNeasy Mini Kit, respectively (QIAGEN, Hilden, Germany). RNA was converted to cDNA using qScript (Quanta BioSciences, Gaithersburg, Md.). Real-time qPCR was performed with SYBR Green (Bio-Rad, Hercules, Calif.). Target primers for UL30 (DNA polymerase catalytic subunit) and reference primers for glyceraldehyde 3-phosphate dehydrogenase (GAPDH) were used to measure genome replication. Transcription of the three gene families was measured with primers for RL2 (ICPO), UL30 (DNA polymerase catalytic subunit), and UL44 (gC), with reference primers for the 18S ribosomal RNA (rRNA).
Human corneas were obtained from the Lions Eye Bank of Delaware Valley. Rabbit corneas were excised from intact fresh eyeballs of young (8-12 weeks) albino rabbits (Pel-Freez Biologicals, Rogers, Ark.). […]
(§3) Total DNA from infected cells and corneas was isolated using the DNeasy Blood & Tissue Kit (QIAGEN, Hilden, Germany). Real time quantitative PCR was performed with SYBR Green (Bio-Rad, Hercules, Calif.). […]

HSV-1 [2] = assay: Ex vivo HSV-1 infection of explanted rabbit corneas, qPCR of viral genome; assay type: cell-based, HSV-1 (KOS strain); conditions: for viral genome replication in corneal epithelium (qPCR): 1×10^4 PFU/cornea, 10 μM
Protocol: as §1, §2
Human corneas were obtained from the Lions Eye Bank of Delaware Valley. Rabbit corneas were excised from intact fresh eyeballs of young (8-12 weeks) albino rabbits (Pel-Freez Biologicals, Rogers, Ark.). The protocol (Alekseev et al., 2012, J. Vis. Exp. e3631) for ex vivo corneal culture and infection was followed, and treatment was administered immediately after infection. Briefly, corneoscleral buttons were excised and rinsed in PBS containing 200 U/ml penicillin and 200 μg/ml streptomycin. The endothelial concavity was filled with culture medium containing 1% low melting temperature agarose. The corneas were cultured epithelial side up in MEM medium supplemented with non-essential amino acids (1×), 2 mM […], 200 U/ml penicillin, and 200 μg/ml streptomycin. The next day, they were infected with 1×10^4 PFU/cornea of strain KOS HSV-1 for 1 hour, rinsed, and overlaid with fresh medium. Drug treatments were administered at the same concentrations as for cultured cells. […]
as §3

cleaved caspase-3 = assay: Cleaved caspase-3 immunofluorescence in HSV-1 infected explanted human corneas; assay type: cell-based; conditions: 10 μM, 48 hpi, vs mock-treated
Protocol: as §1, with “For immunohistochemistry studies, corneas were flash frozen in optimal cutting temperature (OCT) compound, sectioned, and immunostained using standard protocols.” left out, “N.J.). […]” for “N.J.).”

Compound	difference in viral genome levels versus positive controls treated with PAA (HSV-1 [1]; human corneas, 10 μM, PAA 400 μg/ml)	viral genome replication in corneal epithelium (qPCR) (HSV-1 [1]; human corneas, 10 μM)	HSV-1 inhibition in rabbit compared with human corneas (HSV-1 [2]; Chk2 inhibitor II 10 μM, 48 hpi)	HSV-1 growth following the removal of inhibitor (HSV-1 [2]; rabbit corneas, 10 μM for 48 hours, then inhibitor-free medium)	time to which the effect of inhibition was maintained (HSV-1 [2]; rabbit corneas, 10 μM for 48 hours, then inhibitor-free medium for 48 hours, latest time point tested) [hpi]	viral genome replication in corneal epithelium (qPCR) (HSV-1 [2]; rabbit corneas, 48 hpi)	cleaved caspase-3 staining (apoptosis) in corneal epithelium (cleaved caspase-3)	effect on viral genome replication, human compared with rabbit corneas (HSV-1 [1]; KU-55933 10 μM)
NC(=O)c1ccc2[nH]c(-c3ccc(Oc4ccc(Cl)cc4)cc3)nc2c1 [Chk2 inhibitor II, 2-(4-(4-chlorophenoxy)phenyl)-1H-benzimidazole-5-carboxamide]	no statistical significance	did not support productive infection	slightly less potent	resume normal growth	≥ 96	did not support productive infection	abrogated	
O=c1cc(-c2cccc3c2Sc2ccccc2S3)oc(N2CCOCC2)c1 [KU-55933, 2-(morpholin-4-yl)-6-(thianthren-1-yl)-pyran-4-one]		greatly reduced				greatly reduced	reduction	more pronounced in human corneas
